Results from patent EP2439195B1, “NAPHTHALENE CARBOXAMIDE DERIVATIVES AS INHIBITORS OF PROTEIN KINASE AND HISTONE DEACETYLASE, PREPARATION METHODS AND USES THEREOF” (Shenzhen Chipscreen Biosciences, Ltd., priority 2009, dated 2010).

Columns and labels:
Type in all cases: in vivo
[1] = tested on: human A549 lung cancer; assay: Nude mice tumor transplanted from human A549 lung cancer (Example 51); conditions: 40 mg/kg orally once a day for 24 days
Method: Then the cultured A549 human lung cancer cells were implanted into the armpit of 50 mice. […] Each group had 8 mice. One group was treated with vehicle. One group was treated with Sutent, the positive control drug. […] Each group was dosed orally once a day for 24 days. Tumor volumes along with body weights were recorded twice per week. On the next day after 24 doses, the mice were killed, and tumors were weighed. The tumor growth inhibition of each group was calculated using the following formula: {[(the average tumor weight of control group)-(the average tumor weight of test group)]/(the average tumor weight of control group)}×100%.

[2] = tested on: human HCT-8 colon cancer; assay: Nude mice tumor transplanted from human HCT-8 colon cancer (Example 52); conditions: 40 mg/kg orally once a day
Method: Female nu/nu mice of 18∼20g were fed by normal diet for 3 days. Then the cultured HCT-8 human colon cancer cells were implanted into the armpit of 50 mice. […] Each group had 8 mice. One group was treated with vehicle. One group was treated with Sutent, the positive control drug. […] Each group was dosed orally once a day for 24 days. Tumor volumes along with body weights were recorded twice per week. On the next day after 20 doses, the mice were killed, and tumors were weighed. The tumor growth inhibition of each group was calculated using the following formula: {[([…])} × 100%. [formula] The experimental results are shown in Table 6 and Figure 2.

[3] = tested on: SSMC7721 human liver cancer cells; assay: Nude mice tumor transplanted from human SSMC7721 liver cancer (Example 53); conditions: 40 mg/kg orally once a day for 24 days
Method: Female nu/nu mice of 18∼20g were fed by normal diet for 3 days. Then the cultured SSMC7721 human liver cancer cells were implanted into the armpit of 50 mice. […] One group was treated with vehicle. One group was treated with Sutent, the positive control drug. […] Each group was dosed orally once a day for 24 days. […] The tumor growth inhibition of each group was calculated using the following formula: {[([…])} × 100%. [formula] The experimental results are shown in Table 7 and Figure 3.

[4] = tested on: human HCT-8 colon cancer; assay: Nude mice tumor transplanted from human HCT-8 colon cancer (Example 54); conditions: 40 mg/kg orally once a day for 20 days
Method: (§1) Female nu/nu mice of 18∼20g were fed by normal diet for 3 days. Then the cultured HCT-8 human colon cancer cells were implanted into the armpit of 50 mice. […] Each group had 8 mice. One group was treated with vehicle. One group was treated with Sutent, the positive control drug. Two groups were treated with compound 33 at different concentrations. The other two groups were treated with compound 34 at different concentrations. Each group was dosed orally once a day for 20 days. […] The tumor growth inhibition of each group was calculated using the following formula: {[(the average tumor weight of control group)-(the average tumor weight of test group)]/(the average tumor weight of control group)} × 100%. [formula] The experimental results are shown in Table 8 and Figure 4.

[5] = tested on: human SSMC7721 liver cancer; assay: Nude mice tumor transplanted from human SSMC7721 liver cancer (Example 56); conditions: 40 mg/kg orally once a day for 30 days
Method: as §1, with “cultured SSMC7721” for “cultured HCT-8”, “human liver” for “human colon”, “compound 37” for “compound 34”, “for 30” for “for 20”, “Table 10” for “Table 8”, “Figure 6. Table10” for “Figure 4.”

SMILES: CCN(CC)CCNC(=O)c1c(C)[nH]c(/C=C2\C(=O)Nc3ccc(F)cc32)c1C [Sutent, sunitinib, reference compound]
- Tumor weight [1]: 2.06 ± 0.71 g
- Body weight (g) end ([1]; end): 24.4 ± 2.3 g
- Body weight (g) start ([1]; start): 20.3 ± 1.4 g
- TGI (%) ([1]; tumor growth inhibition): 50.9%
- Body weight (g) end ([2]; end): 22.4 ± 1.1 g
- Tumor weight ([2]; killed after 20 doses): 0.23 ± 0.07 g
- Body weight (g) start ([2]; start): 21.5 ± 0.7 g
- TGI (%) ([2]; tumor growth inhibition): 95.3%
- Tumor weight [3]: 1.00 ± 0.68 g
- Body weight (g) end ([3]; end): 24.8 ± 1.2 g
- Body weight (g) start ([3]; start): 21.0 ± 0.8 g
- TGI (%) ([3]; tumor growth inhibition): 70.3%
- Tumor weight [4]: 0.44 ± 0.15 g
- Body weight (g) end ([4]; end): 22.1 ± 1.5 g
- Body weight (g) start ([4]; start): 20.6 ± 1.2 g
- TGI (%) ([4]; tumor growth inhibition): 89.1%
- Tumor weight [5]: 0.88 ± 0.39 g
- Body weight (g) end ([5]; end): 24.0 ± 0.6 g
- Body weight (g) start ([5]; start): 21.2 ± 1.1 g
- TGI (%) ([5]; tumor growth inhibition): 61.1%
